{
  "source": "paper PMC6856721",
  "about": "“Discovery of a Novel DNA Gyrase-Targeting Antibiotic through the Chemical Perturbation of Streptomyces venezuelae Sporulation” (Cell Chemical Biology, 2019)",
  "key": {"[1]": {"system": "S. aureus", "assay": "Minimum inhibitory concentration, broth dilution, S. aureus strains", "format": "cell-based, Staphylococcus aureus", "experimental": "(§1) The minimum inhibitory concentration (MIC) defines the lowest concentration of a compound required to inhibit the growth. A single colony of the bacteria being tested was grown in 5 mL of liquid growth media. Following overnight growth, the culture was diluted 100-fold into fresh media and incubated at 37°C until the cells reached mid-log phase (OD600 of 0.3 to 0.5). The cells were diluted 10,000-fold into fresh media and the MIC determined for each of the strains by adding 2 μL of the diluted compound to 198 μL of the diluted cells in a clear 96-well plate. The plates were incubated at 37°C overnight and the optical density at 600 nm was measured for each well. All MIC assays were performed in triplicate."}, "[2]": {"target": "T1, E. coli gyrase (Escherichia coli, UniProt P0AES4+P0AES6)", "T1 construct": "purchased Inspiralis Inc. K0001", "assay": "E. coli gyrase supercoiling", "format": "biochemical", "conditions": "purified E. coli gyrase", "experimental": "(§2) 1 U of DNA gyrase was incubated with 0.5 μg of relaxed pBR322 DNA in a 30 μl reaction at 37°C for 30 minutes under the following conditions: 35 mM Tris.HCl (pH 7.5), 24 mM KCl, 4 mM MgCl2, 2 mM DTT, 1.8 mM Spermidine, 1 mM ATP, 6.5% (w/v) glycerol and 0.1 mg/mL BSA. Each reaction was stopped by the addition of 30 μl chloroform/iso-amyl alcohol (24:1) and 20 μl Stop Dye (40% sucrose, 100 mM Tris.HCl (pH 7.5), 10 mM EDTA, 0.5 μg/mL bromophenol blue), before being loaded on a 1.0% TAE (Tris.acetate […], EDTA […]) agarose gel. Gels run at 90 V for 2 hours. Bands were visualized by ethidium staining for 20 minutes and destaining in water for 20 minutes. Gels were scanned using a gel documentation system (GeneGenius, Syngene, Cambridge, UK) and percent inhibition levels obtained with gel scanning software (GeneTools, Syngene, Cambridge,UK)."}, "[3]": {"system": "E. coli", "assay": "Minimum inhibitory concentration, broth dilution, E. coli strains", "format": "cell-based, Escherichia coli", "experimental": "as §1"}, "[4]": {"target": "T2, S. aureus gyrase (Staphylococcus aureus, UniProt P0A0K8+P20831)", "T2 construct": "purchased Inspiralis Inc. SAS4001 (supercoiling kit); SAGC001 (cleavage assay kit)", "assay": "S. aureus gyrase relaxation", "format": "biochemical", "conditions": "ATP-independent", "experimental": "1 U of gyrase was incubated with 0.5 μg of supercoiled pBR322 DNA in a 30 μL reaction at 37°C for 60 minutes under the following conditions: 50 mM Tris.HCl (pH 7.5), 5 mM MgCl2,5 mM DTT, 350 mM potassium glutamate, and 0.05 mg/mL albumin. Each reaction was stopped by the addition of 30 μL chloroform/iso-amyl alcohol (24:1) and 20 μl Stop Dye, before being loaded on a 1.0% TAE agarose gel. Gels run at 80 V for 2 hours."}, "[5]": {"target": "T3, S. aureus gyrase GyrA S84L (Staphylococcus aureus, UniProt P0A0K8+P20831, S84L)", "T3 construct": "purchased Inspiralis Inc. SAAS84L01", "assay": "Supercoiling inhibition of S. aureus gyrase mutant GyrA S84L", "format": "biochemical", "experimental": "as §2\n(§3) As for E. coli gyrase except assay conditions were: 40 mM HEPES. KOH (pH 7.6), 10 mM magnesium acetate, 10 mM DTT, 2 mM ATP, 500 mM potassium glutamate, and 0.05 mg/mL BSA. Gels run at 80 V for 3 hours."}, "[6]": {"system": "S. venezuelae", "assay": "S. venezuelae sporulation inhibition disk diffusion assay (whi phenotype, SEM)", "format": "cell-based, Streptomyces venezuelae", "conditions": "filter disk, 10 μL of 2.5 mM", "experimental": "A lawn of S. venezuelae spores was plated on MYM agar plates and allowed to dry. For the initial screen, 2 μL of each molecule at 2.5 mM was spotted directly to the agar plate. For known antibiotics or follow-up screening, 10 μL of molecule was added to a drug disk, allowed to dry, and placed on the agar plate. The S. venezuelae plate was incubated at 30°C for 48 hours and photographed. The whi phenotype was identified by eye. Hits were selected based on their ability to induce a whi phenotype at sub-inhibitory concentrations and scored by eye on the size of the induced whi region and the zone of inhibition.\nTo prepare samples for SEM, the agar plate containing a lawn of S. venezuelae was cut at the edge of the zone of inhibition and fixed with 2% glutaraldehyde in 0.1% sodium cacodylate buffer followed by sputter coating with gold. Images were obtained and processed using a FEI XL30 ESEM. The contrast of the resulting images was adjusted to highlight the appearance or lack of spore formation."}, "[7]": {"target": "T2, S. aureus gyrase", "assay": "S. aureus gyrase cleavage", "format": "biochemical", "experimental": "1 U of gyrase was incubated with 0.5 μg of supercoiled pBR322 DNA in a 30 μL reaction at 37 C for 30 minutes under the following conditions: 40 mM HEPES. KOH (pH 7.6), 10 mM magnesium acetate, 10 mM DTT, 100 mM potassium glutamate and 0.05 mg/mL albumin. 0.2 % SDS and 0.1 mg/mL Proteinase K were added before a further incubation at 37°C for 30 minutes. Each reaction was stopped by the addition of 30 μL chloroform/iso-amyl alcohol (24:1) and 20 μL Stop Dye, before being loaded on a 1.0% TAE agarose gel. Gels run at 80 V for 2 hours."}, "[8]": {"target": "T2, S. aureus gyrase", "assay": "S. aureus gyrase supercoiling", "format": "biochemical", "conditions": "purified S. aureus gyrase, wild-type", "experimental": "as §2, §3"}, "[9]": {"system": "HEK293 cells", "assay": "Toxicity against human HEK293 cells", "format": "cell-based", "excerpt": "The experimental model that we have employed is Staphyloccocus aureus strain ATCC 29213. We have used the cell line HEK293, as a control for EN-7 toxicity against human cells."}},
  "note": "Where “and” joins values, the source holds several entries; their conditions need not be identical. Equal entries are not always repeated. Where two headings read alike, the source gives them in different places.",
  "data": [
    {"smiles": "O=C(/C=C/c1cccc2cccnc12)NNC(=O)c1cc(-c2ccccc2)on1", "note": "[EN-7]", "values": [
      {"measurement": "MIC", "setting": "[1]; S. aureus clinical strain C0018, read-out: MIC", "result": ">128", "unit": "µM"},
      {"measurement": "MIC", "setting": "[1]; S. aureus clinical strain C0032, read-out: MIC", "result": ">128", "unit": "µM"},
      {"measurement": "MIC", "setting": "[1]; S. aureus clinical strain C0117, read-out: MIC", "result": ">128", "unit": "µM"},
      {"measurement": "MIC", "setting": "[1]; Staphylococcus aureus, ATCC29213, S. aureus ATCC 29213 (wild-type, parent strain), read-out: MIC", "result": 1, "unit": "µM"},
      {"measurement": "MIC", "setting": "[1]; Staphylococcus aureus, ATCC29213, nine EN-7-resistant S. aureus ATCC 29213 mutants (mut-1 to mut-9), 16 μM highest concentration tested", "result": "> 16", "unit": "µM"},
      {"measurement": "MIC", "setting": "[1]; Staphylococcus aureus, ATCC29213, three S. aureus ATCC 29213 GyrB K417E allelic exchange strains", "result": "> 128", "unit": "µM"},
      {"measurement": "MIC", "setting": "[1]; Staphylococcus aureus, ATCC 29213 / ATCC 33591, S. aureus three laboratory strains (ATCC 29213, TCH1516, ATCC 33591) and four clinical strains (C0017, C0024, C0023, C0019), read-out: MIC", "result": 0.4, "unit": "µg/mL"},
      {"measurement": "MIC", "setting": "[1]; Staphylococcus aureus, ATCC33519, S. aureus ATCC 33519, read-out: MIC", "result": 1, "unit": "µM"},
      {"measurement": "MIC", "setting": "[1]; Staphylococcus aureus, S. aureus TCH 1516, read-out: MIC", "result": 1, "unit": "µM"},
      {"measurement": "MIC", "setting": "[1]; Staphylococcus aureus, S. aureus clinical strain C0017, read-out: MIC", "result": 1, "unit": "µM"},
      {"measurement": "MIC", "setting": "[1]; Staphylococcus aureus, S. aureus clinical strain C0018, read-out: MIC", "result": "> 128", "unit": "µM"},
      {"measurement": "MIC", "setting": "[1]; Staphylococcus aureus, S. aureus clinical strain C0019, read-out: MIC", "result": 1, "unit": "µM"},
      {"measurement": "MIC", "setting": "[1]; Staphylococcus aureus, S. aureus clinical strain C0023, read-out: MIC", "result": 1, "unit": "µM"},
      {"measurement": "MIC", "setting": "[1]; Staphylococcus aureus, S. aureus clinical strain C0024, read-out: MIC", "result": 1, "unit": "µM"},
      {"measurement": "MIC", "setting": "[1]; Staphylococcus aureus, S. aureus clinical strain C0032, read-out: MIC", "result": "> 128", "unit": "µM"},
      {"measurement": "MIC", "setting": "[1]; Staphylococcus aureus, S. aureus clinical strain C0112, read-out: MIC", "result": 4, "unit": "µM"},
      {"measurement": "MIC", "setting": "[1]; Staphylococcus aureus, S. aureus clinical strain C0117, read-out: MIC", "result": "> 128", "unit": "µM"},
      {"measurement": "IC50", "setting": "[2]", "result": 1.75, "unit": "µM"},
      {"measurement": "MIC", "setting": "[3]; E. coli BW25113, read-out: MIC", "result": ">64", "unit": "µM"},
      {"measurement": "MIC", "setting": "[3]; E. coli MC1061, read-out: MIC", "result": ">64", "unit": "µM"},
      {"measurement": "MIC", "setting": "[3]; Escherichia coli, BW25113, E. coli BW25113, read-out: MIC", "result": "> 64", "unit": "µM"},
      {"measurement": "MIC", "setting": "[3]; Escherichia coli, BW25113, E. coli BW25113 ΔtolC ΔbamB, outer-membrane and efflux-deficient", "result": 1, "unit": "µM"},
      {"measurement": "MIC", "setting": "[3]; Escherichia coli, E. coli MC1061, read-out: MIC", "result": "> 64", "unit": "µM"},
      {"measurement": "Inhibition of gyrase-induced DNA relaxation", "setting": "[4]", "result": "inhibit"},
      {"measurement": "IC50", "setting": "[4]; read-out: IC50, gyrase-induced relaxation", "result": "0.1 to 0.5", "unit": "µM"},
      {"measurement": "IC50", "setting": "[5]", "result": 9.96, "unit": "µM"},
      {"measurement": "Increase of IC50 relative to the wild-type enzyme", "setting": "[5]; GyrA S84L vs wild-type S. aureus gyrase, supercoiling inhibition", "result": "> 100 fold and ~100 fold"},
      {"measurement": "Susceptibility of gyrase mutant GyrA S84L", "setting": "[5]; S. aureus gyrase", "result": "less susceptible"},
      {"measurement": "Growth inhibition (zone of inhibition)", "setting": "[6]", "result": "significant zone of inhibition"},
      {"measurement": "Sporulation inhibition below the MIC for growth", "setting": "[6]", "result": "striking band of inhibited sporulation"},
      {"measurement": "Occurrence of DNA nicking", "setting": "[7]; S. aureus gyrase, pBR322", "result": "does increase the occurrence of DNA nicking"},
      {"measurement": "Stabilization of gyrase-DNA double-stranded cleavage complex", "setting": "[7]; S. aureus gyrase, pBR322", "result": "does not stabilize"},
      {"measurement": "Effect on ciprofloxacin-induced formation of the double-stranded cleavage complex", "setting": "[7]; co-treatment with ciprofloxacin", "result": "does not prevent"},
      {"measurement": "IC50", "setting": "[8]", "result": 0.085, "unit": "µM"},
      {"measurement": "Toxicity to human HEK293 cells", "setting": "[9]", "result": "no toxicity"}
    ]}
  ]
}
